Experimental data as given in the METLIN SMRT retention time set (Domingo-Almenara et al. 2019).

test: gradient 5% acetonitrile 3 min, to 50% in 2 min, to 85% in 15 min, held 3 min, 100 µL/min; details: column: Zorbax Extend-C18 2.1 x 50 mm; eluents: water / acetonitrile, 0.1% formic acid
How it was run: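 Values are retention times taken from adduct peaks that software picked and an analyst inspected. The pure standards were run as mixtures of ~100 molecules on HPLC linked to a quadrupole time-of-flight mass spectrometer, in positive and negative ionization mode. A Zorbax Extend-C18 column (2.1 × 50 mm, 1.8 μm) was used at 100 μL/min with water and acetonitrile, each including 0.1% formic acid.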

RP-LC retention time	Compound
695 s	O=C(CCCS(=O)(=O)c1ccc(Cl)cc1)Nc1ccc([N+](=O)[O-])cc1
607 s	CC(C)NC(=O)CN1CCN(C(=O)c2sc3ncccc3c2-n2cccc2)CC1
701 s	O=C(NCc1ccc2c(c1)OCO2)C1CCCN(c2nnc3c(Cl)cccn23)C1 (stereo unspecified)
670 s	CC1CCCCN1CCCNC(=O)Cn1ccc2cc(S(=O)(=O)N3CCCCC3)ccc21 (stereo unspecified)
520 s	Cc1ccc(N2CCC(NC(=O)C3CCCCC3)C2=O)cc1 (stereo unspecified)
675 s	O=C(Cc1nnc(-c2ccccc2)o1)NC1CCCC1
566 s	COc1cn(CC(=O)Nc2cc(C)on2)c(CN2CCCCC2)cc1=O
999 s	O=C(NCc1ccco1)c1ccc2c(c1)CCCN2S(=O)(=O)c1ccc(Cl)cc1
542 s	O=C(CCc1csc(NC(=O)c2ccc(=O)[nH]c2)n1)NCc1ccccn1
882 s	Cc1cc(Cl)ccc1NC(=O)C1CCN(S(C)(=O)=O)c2ccccc2O1 (stereo unspecified)
1040 s	CCc1nc(-c2ccc(-c3noc(CNC(=O)c4ccc(C)cc4)n3)cc2)cs1
668 s	CC(C)CC(=O)Nc1ccc(-n2cnc(C(=O)NC3CC3)c2)nc1
629 s	CCCNC(=O)c1cc2sc(C)c(CN3CCCCC3)c2[nH]1
732 s	Cc1nc(-c2cc3cccc(C)c3nc2N2CCN(c3ccc(F)cc3)CC2)no1
910 s	Cc1ccc(NS(=O)(=O)c2ccc3c(c2)C(=O)N(C)c2ncccc2O3)c(F)c1
1090 s	Cn1nc(-c2nnc(-c3ccc(F)cc3)o2)c2c1CCN(S(=O)(=O)c1ccc3c(c1)CCCC3)C2
617 s	COc1ccc(CC(=O)Nc2ccc(Nc3cc(OC)nc(C)n3)cc2)cc1
764 s	CCC(C)NC(=O)CN1C(=O)CSc2c1c(C)nn2-c1ccccc1 (stereo unspecified)
621 s	CC(C)n1c(N2CCCN(C(=O)c3ccncc3)CC2)cc(=O)n(C(C)C)c1=O
867 s	CCc1cccc(C)c1Nc1c(-c2ccc(SC)cc2)nc2nc(C)cc(C)n12
882 s	CC1Sc2ccc(S(=O)(=O)N3CCC(C(=O)N4CCc5ccccc5C4)CC3)cc2NC1=O (stereo unspecified)
735 s	CCOC(=O)c1c(C)[nH]c(C)c1S(=O)(=O)N1CCC(C(=O)NC2CCCC2)CC1

RP-LC retention time	Compound
775 s	O=C(c1ccc(Cl)cc1)N1CCC(N(C(=O)C2CC2)C2CCOCC2)CC1
984 s	CCCCN1C(=O)C(C)(C(=O)NCc2ccc(F)cc2)Oc2cccnc21 (stereo unspecified)
1150 s	CCOC(=O)c1ccc(NC(=O)N2CCc3cn(CC)c4cccc(c34)C2)cc1
590 s	O=C(NC1CCCCCC1)C1c2ccccc2C(=O)N1Cc1cccnc1 (stereo unspecified)
649 s	Cc1ccc(-n2nnnc2-c2cccnc2)cc1
652 s	O=C(c1ccccc1-c1ocnc1C(=O)N1CCOCC1)N1CCCCC1
818 s	Cc1cc(NC(=O)Cn2c(=O)c3cc(C4CC4)nn3c3ncccc32)ccc1F
1180 s	CCc1nc(-n2cccc2)sc1C(=O)Nc1cc(C)ccc1F
698 s	Cc1c(S(=O)(=O)NCC(c2cccnc2)c2cn(C)c3ccccc23)cnn1C(F)F (stereo unspecified)
637 s	OCc1cc2c(cn1)[nH]c1ccccc12
932 s	COc1ccc(-c2ccnn2-c2ccc(SCC(=O)NC(C)C)nn2)cc1
636 s	CCc1nn2c(CNC(=O)c3ccccc3Br)c(C)nc2s1
584 s	CC(=O)Nc1ccc(NC(=O)CSc2ccc(N3CCCC(C(=O)NC4CC4)C3)nn2)cc1 (stereo unspecified)
803 s	COc1ccc(NC(=O)N2CCC(n3cnc4ccc(Cl)cc4c3=O)CC2)c(OC)c1
788 s	COC(=O)c1c(NCc2ccc3c(c2)OCO3)c2cccc(Cl)c2[nH]c1=O
987 s	COc1cccc(C(=O)NC2(C(F)(F)F)C(=O)N(C3CCCCC3)C(C)=C2C(C)=O)c1 (stereo unspecified)
620 s	Cc1ccc(=O)n(CCNC(=O)Cc2cn(C)c3ccccc23)n1
769 s	Cc1ccc(C)c(CNC(=O)c2ccc3c(c2)nc2n3CCN(C(C)C)C2=O)c1
676 s	CCN(CC)S(=O)(=O)c1ccc(Cl)c(C(=O)NCc2ccccn2)c1
712 s	COc1ccc(NC(=O)C2CCN(S(=O)(=O)c3cc4c(cc3C)NC(=O)CO4)CC2)cc1OC
895 s	Cc1cc(C)c(NC(=O)Cn2c(=O)cc(-c3nc(C)no3)c3ccccc32)c(C)c1
580 s	COCCNC(=O)C1CCN(c2cncnc2N2CCCC2)CC1

RP-LC retention time	Compound
981 s	CCOC(=O)c1c(C)oc2ncnc(N3CCc4cc(OC)c(OC)cc4C3C)c12 (stereo unspecified)
1210 s	CCCn1cc(C(=O)Nc2ccc(OC)c(Cl)c2)c(=O)c2ccc(C)nc21
802 s	CC(C)Oc1ccc(CNC(=O)C2CCN(S(=O)(=O)c3cn(C(C)C)cn3)CC2)cc1
768 s	Cc1ccc(NC(=O)c2ccccc2C(=O)O)cc1Br
838 s	COc1ccc(-c2c(C)noc2NC(C)=O)cc1S(=O)(=O)Nc1c(C)cc(C)cc1C
752 s	CSc1ccc(CNC(=O)CC2c3ncccc3C(=O)N2c2ccccc2)cc1 (stereo unspecified)
975 s	COC(=O)c1ccc2c(=O)n(Cc3ccc(F)cc3)c(N3CCOCC3)nc2c1
777 s	CC(=O)Nc1cccc2c(C(=O)NCCC(C)C)ccnc12
920 s	CCc1nc2c(NC(=O)c3ccc(C)cc3C)cccn2n1
594 s	Cc1nc2c(n1C)CN(C(=O)Cc1c(F)cccc1Cl)CC2
642 s	O=C(CCc1ccc2nc(-c3ccccc3)[nH]c2c1)N1CCCCCC1
753 s	Cc1ccc(NC(=O)N2CCc3[nH]cnc3C2c2ccncc2)c(Cl)c1 (stereo unspecified)
822 s	Cc1sc(NC(=O)CC(C)C)nc1-c1ccc2c(c1)NC(=O)CO2
888 s	CCCCCCCCCC(=O)NC(CN1CCOCC1)[C@H](O)c1ccccc1 (stereo partly specified)
963 s	COc1cccc(-c2noc(C3CC(=O)N(c4ccc(Cl)cc4)C3)n2)c1OC (stereo unspecified)
887 s	O=C(C1CC1)N1CCc2sc(S(=O)(=O)Nc3ccc(Cl)cc3F)cc2C1
804 s	CCn1c(SC)nnc1-c1nn(C)c2c1CN(C(=O)c1ccc(F)c(F)c1)CC2
887 s	CCN1C(=O)c2cc(C(=O)Nc3cccc(Cl)c3)nn2CC1(C)C(=O)NC1CCCC1 (stereo unspecified)
926 s	O=C(C1CC1)N1CCN(S(=O)(=O)c2cc(-c3noc(C4CCC4)n3)cs2)CC1
749 s	CC1CCN(S(=O)(=O)c2cccn(CC#N)c2=O)CC1
699 s	O=C(CN1C(=O)NC2(CCCCC2)C1=O)NCc1ccc2c(c1)OCO2
895 s	COc1ccc(-n2nc(C)c3sc(N4CCCC(C(=O)NCC5CCCO5)C4)nc32)cc1 (stereo unspecified)
